Results reported in patent publication US5833994A, “Use of the AH receptor and AH receptor ligands to treat or prevent cytopathicity of viral infection” (Paracelsian, Inc., priority 1997, dated 1998).
“Also recorded” adds a separate entry of the source.

Assays:
Cyclin B [1] = test: Inhibition of cyclin B overexpression, western blot densitometry; format: cell-based; conditions: TCDD, 10 nM; mean ± standard error, n=5 or 6; 2-8 co-culture 61.88, 2-2 co-culture 10.14
Method: (§1) The expression of the protein kinase c-Mos was induced in addition to alterations in cell cycle (CDK1, cyclin B) and apoptotic (Bcl-2 and Bax) protein concentrations and phosphorylation status. CDK1 became hyperphosphorylated whereas cyclin B, Bcl-2, and Bax expression were elevated. Assay for these biochemical changes was performed by western blot analysis using equal amounts of cell lysate proteins derived from cells cultured with the respective Ah receptor ligands. Responses were quantified by scanning densitometry.
(§2) Data from Table 2 represents the mean ± standard error of scanning densitometric units (n=5 or 6 individual scans from separate experiments).Doses used were as follows: TCDD, 10 nM; Substituted Furans (6-nitro 1,3,8-trichlorodibenzofuran; 6-isopropyl, 1,3,8-trichlorodibenzofuran; 6-methyl, 1,3,8-trichlorodibenzofuran; 1-bromo, 6-methyl, 3,8-dichlorodibenzofuran), 2 μM. All four alkyl substituted furan compounds that were tested yielded approximately equivalent responses so their responses were combined.

CDK1 = test: Inhibition of CDK1 hyperphosphorylation, western blot densitometry; format: cell-based; conditions: TCDD, 10 nM; mean ± standard error, n=5 or 6; 2-8 co-culture 44.27, 2-2 co-culture 10.41
Method: as §1, §2

Ah receptor [2] = target: T1, Ah receptor (Cavia porcellus, UniProt Q6J287); test: Ah receptor transformation, agonist test (Ah-immunoassay, absence of TCDD); format: biochemical, Guinea pig
T1 sequence (Q6J287 1-846): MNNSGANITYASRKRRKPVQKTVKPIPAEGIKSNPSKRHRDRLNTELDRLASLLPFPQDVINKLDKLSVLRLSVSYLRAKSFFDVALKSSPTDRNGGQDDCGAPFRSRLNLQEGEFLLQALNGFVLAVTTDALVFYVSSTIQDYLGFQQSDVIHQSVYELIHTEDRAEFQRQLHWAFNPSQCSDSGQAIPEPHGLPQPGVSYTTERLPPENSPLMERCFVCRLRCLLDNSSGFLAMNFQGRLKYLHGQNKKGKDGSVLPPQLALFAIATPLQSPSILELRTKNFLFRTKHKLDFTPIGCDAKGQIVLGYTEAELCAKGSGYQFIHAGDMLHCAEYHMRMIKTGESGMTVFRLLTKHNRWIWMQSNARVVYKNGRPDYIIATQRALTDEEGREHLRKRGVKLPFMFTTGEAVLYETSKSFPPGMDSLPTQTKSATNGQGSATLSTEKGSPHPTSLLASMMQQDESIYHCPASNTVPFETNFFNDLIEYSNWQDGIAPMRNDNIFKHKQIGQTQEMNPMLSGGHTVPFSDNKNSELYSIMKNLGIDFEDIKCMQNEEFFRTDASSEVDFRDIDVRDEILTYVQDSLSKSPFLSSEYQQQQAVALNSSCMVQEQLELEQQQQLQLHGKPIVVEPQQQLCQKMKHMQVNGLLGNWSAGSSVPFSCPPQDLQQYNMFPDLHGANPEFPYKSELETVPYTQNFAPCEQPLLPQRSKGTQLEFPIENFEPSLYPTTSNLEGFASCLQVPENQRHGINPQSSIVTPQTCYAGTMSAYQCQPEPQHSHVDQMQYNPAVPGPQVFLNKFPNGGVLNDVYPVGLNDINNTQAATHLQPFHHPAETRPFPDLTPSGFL
Method: Cytosol was prepared as described above.
Diluent for TCDD dose response, diluent for extracts (detection of agonists), and negative control: The cytosol is treated with 1 μL DMSO per 1 mL cytosol (-).
1 nM TCDD treated, positive control. […] DMSO diluent for detection of agonists: the cytosol is treated with μL DMSO per 1 mL cytosol. (1 nm final concentration of TCDD).

Cyclin B [3] = test: Inhibition of cyclin B overexpression (cyclin B ELISA; FIGS. 2 and 3); format: cell-based; conditions: FIG. 2 / FIG. 3
Method: Cyclin B ELISA procedure: The overexpression Cyclin B has become associated with HIVenv 2-8 cytopathicity. This biochemical response and it's inhibition by Ah receptor ligands has been assayed by ELISA. Following 24 hours of co-culture in 96 well microtiter tissue culture plates, the cells are washed 1X with PBS buffer and then lysed with 50 μL lysis buffer (50 mM Tris, […], 10% glycerol, 1% NP-40) with shaking at 4° C. for 30 minutes. Thirty microliters of the cell lysate were then transferred into Immulon 4™ ELISA strip plates and 70 μL of coating buffer (0.2M Borate pH 10.5) added to bring the final microtiter well volume to 100 μL The plates were then incubated at 37° C. for 1 hour to allow for coating. The plates are then washed 3X with 300 μl TBST (20 mM Tris, 150 mM NaCl, 0.05% Tween 20, pH 7.5), incubated with 125 μL of blocking solution for 5 minutes, washed 3X, incubated with horseradish peroxidase labeled anti-mouse IgG for 1 hour at room temperature, washed 3X, and then incubated with 100 μL TMB substrate for 30 minutes at room temperature. Stop solution (2.5M sulfuric acid, 100 μL) was then added to prevent further color development and the plate was read at an optical density of 450 nm.
Data Reduction for this ELISA: HIVenv 2-2 co-culture ELISA values are used as the background for HIVenv 2-8 co-culture values. […]

[4] = tested on: HIV envelope gp120/41-induced syncytia formation in CD4+T cell lines (HIVenv 2-8 co-culture); test: Inhibition of HIVenv 2-8-induced syncytia formation / cell death (HIV-1 co-culture assay); format: cell-based; conditions: for Estimated IC50 (Syncitia Quantification), inhibition of HIV-induced cytopathicity: Table 1
Method: Sourcing of Ah Receptor Ligands: The Ah receptor ligands 2,3,7,8-Tetrachlorodibenzo-p-dioxin, 3,3',4,4',5-Pentachlorobiphenyl, 3,3',4,'4-Tetrachlorobiphenyl, and 2-Monochlorodibenzo-p-dioxin compounds were purchased from Accustandard (Cambridge, Mass.). α-naphthoflavone was purchased from Sigma (St. Louis, Mo.). Stock solutions of each compound were prepared by dissolution in DMSO at a 1000X concentration, i.e. the highest concentration tested was diluted by 1000-fold.
Bioassay Procedure: The cell lines utilized in the assay protocol include the following: HIVenv 2-2 (non-cytopathic), HIVenv 2-8 (cytopathic), Jurkat CD4+T cell line (clone E6-1), and SupT1. Cell lines were cultured in RPMI medium (Gibco, Grand Island, N.Y.) supplemented with L-glutamine (Sigma, St. Louis, Mo.) and 10% FBS-HI (Intergen). The Jurkat CD4+T cell line was obtained from American Type Culture Collection (Bethesda, Md.). All other cell lines were obtained from the National Institutes of Health. The HIVenv 2-2 or HIVenv 2-8 cells were plated with both CD4+T cell lines (1×10^3 cells per cell line in 16 μL of media.) in a 96-well tissue culture plate containing 50 μL of media with compound to be tested yielding a final volume of approximately 100 μL. The plates were then gently shaken to ensure adequate mixing of the assay components. Cells were then co-cultured at 5% CO2, 37C., and 95% humidity for 24 to 48 hours. The time points were chosen for the convenience, cytopathic changes become evident in the cell cultures used within a 2 to 4 hour period, becoming more and more prominent with time.
Data Reduction for this ELISA: HIVenv 2-2 co-culture ELISA values are used as the background for HIVenv 2-8 co-culture values. Dose responses are then plotted with dose along the x-axis and the background corrected optical density values on the y-axis.
Positive and Negative Controls: The use of the HIVenv 2-2 cell line serves as a negative control for induction of cytopathicity.
(§3) Interpretation of the Test: A positive response was defined as a dose-related decrease in syncytia formation in excess of 50% compared to HIVenv 2-8 co-cultures alone. Calculation of median effective doses was estimated by visual observation and by quantification of syncitia in 10X power microscope fields.
The Materials and Methods used in the testing of the various dibenzofuran compounds were the same as those used in Example 1 above. This includes the use of the same controls, cell lines, and assay procedures.
as §3, with “fields. Another procedure which provides data similar to the Bioassay procedure just described allows for quantification of changes in the co-culture cells through an ELISA method, not as reliant on visual observation. […]” for “fields.”

Ah receptor [5] = target: T1, Ah receptor; test: Inhibition of Ah receptor transformation, antagonist test (Ah-immunoassay, 0.5 nM TCDD)
Method: Cytosol was prepared as described in methods and treated with TCDD, DMSO or TCM extract to make 1) 0.5 nM TCDD, 2) 0.1% DMSO, or 3) 500 μg/mL TCM extract, respectively. The treated cytosol was serially diluted in a neutravidin-coated ELISA plate (Pierce, Rockford, Ill.). […] To treat for Ah receptor agonist activity, extracts were diluted in 0.5 nM TCDD treated cytosol to 250, 125, and 62.5 μg/mL of TCM extracts.
Ten mL aliquots of cytosol were thawed and pooled, generally 20 mL per ELISA plate. For each 20 mL of cytosol, 10 μL of thawed DRE stock and 1 mL HEDG in 4M NaCl were added.
0.5 nM TCDD Diluent for extracts (detection of antagonists): The cytosol is treated with 1 μl of 1 μM TCDD per 2 mL cytosol (0.5 nm).
500 μg/mL extracts (detection of antagonists): 1 μL of test extract (500 mg/mL in DMSO) in 1 mL 0.5 nM TCDD-treated cytosol (500 μg/mL final concentration of extract in cytosol).
Serial dilution's of the extracts and/or TCDD treated cytosol into DMSO-treated cytosol are done as required by the experiment and are described in the examples.
The ELISA plate containing the treated cytosol is incubated with gentle rocking for 2 hours at 30° C. to allow the transformation of Ah receptor, binding of Ah receptor with ARNT, and binding of the Ah receptor/ARNT complex to the biotinylated DRE, and binding of the biotinylated DRE to the neutravidin bound to the ELISA plate.
After 2 hours the plate is washed 3 times with 400 μL TBS plus 0.02% Tween 20 per well per wash and 200 μL of the working dilution of anti-ARNT added to all wells. The plate is again incubated with gentle rocking at 30° C. for 1 hour. After 1 hour the plate is washed as before and a working dilution (1:4000) of anti-rabbit/alkaline phosphatase conjugate is added to all wells. The plate is incubated for a further 1 hour at 30° C. with gentle rocking and then washed as before. PNPP stock is added to each well (200 μL) and the plate is incubated for 1 hour at 30° C., at which time it is read at 405 nm in an ELISA plate reader and the milli O.D.'s of the wells are recorded.
TCM extracts were tested for their ability to inhibit the transformation of the Ah receptor.

Ah receptor [6] = conditions: literature; cited from earlier work
[7] = tested on: transformed, cancerous cells; conditions: cited from earlier work
[8] = high dosages over a prolonged period; cited from earlier work

## Clc1cc2c(cc1Cl)Oc1cc(Cl)c(Cl)cc1O2 [2,3,7,8-TCDD, 2,3,7,8-Tetrachlorodibenzo-p-dioxin]
Cyclin B [1]
  Cyclin B (inhibition of cyclin B overexpression): 9.32 ± 2.7 scanning densitometric units
CDK1
  CDK1 Phosphorylation: 11.13 ± 3.3 scanning densitometric units
Ah receptor [2]
  EC50: 0.5 nM
Ah receptor [2]; Table 12 footnote, .5 nM TCDD, BG subtracted, read at 450 nm
  Milli O.D. of TCDD control: 850 Milli O.D.
Cyclin B [3]
  inhibition of cyclin B overexpression (figure legend): inhibition of cyclin B overexpression
[4]
  inhibition of syncytia formation / cytopathicity: most effective compound and strongest Ah receptor agonist
  Estimated IC50 (Syncitia Quantification), inhibition of HIV-induced cytopathicity: 2 nM

## COC1C=CC=C(C)C(=O)NC2=CC(=O)C=C(C2=O)C(OC)C(C)CC(OC)C(OC)C(C)C=C(C)C1OC(N)=O (centres unmarked) [Herbimycin A, herbimycin A]
Cyclin B [3]
  inhibition of cyclin B overexpression (figure legend): inhibition of cyclin B overexpression
[4]
  inhibition of syncytia formation / cytopathicity: block the HIVenv 2-8 induced cytopathic effect
  Estimated IC50 (Syncitia Quantification), inhibition of HIV-induced cytopathicity: 750 nM
[4]; Table 1, positive control
  Estimated IC50 (Syncitia Quantification), inhibition of HIV-induced cytopathicity, second value in brackets: 430 nM

## O=c1cc(-c2ccccc2)oc2c1ccc1ccccc12 [α-naphthoflavone]
Ah receptor [5]; 0.5 nM TCDD
  IC50, inhibition of Ah receptor transformation (estimated): 18600 nM
  inhibition of Ah receptor transformation / antagonist activity (words): more potent antagonist of the Ah receptor
Ah receptor [2]; absence of TCDD
  ability to transform the Ah receptor / agonist activity: very weak agonist of the Ah receptor; also recorded: did not reach the EC50 of TCDD
Ah receptor [6]
  known Ah receptor agonism/antagonism: known partial agonist and antagonist of the Ah receptor; also recorded: described to act as an Ah receptor antagonist by inhibiting TCDD-induced Ah receptor transformation to a DNA binding form
[4]
  inhibition of syncytia formation / cytopathicity: correspondingly weaker activity; also recorded: also effective at inhibiting syncytia formation
  Estimated IC50 (Syncitia Quantification), inhibition of HIV-induced cytopathicity: 350 nM

## O=c1c(O)c(-c2ccc(O)c(O)c2)oc2cc(O)cc(O)c12 [Quercetin]
Ah receptor [5]
  IC50: ~9930 nM
Ah receptor [5]; 0.5 nM TCDD
  inhibition of Ah receptor transformation / antagonist activity (words): does present antagonistic activity towards the Ah receptor
Ah receptor [5]; 0.5 nM TCDD, listed as quercetin
  inhibition of Ah receptor transformation / antagonist activity (words): antagonistic activity towards the Ah receptor at all doses tried
Ah receptor [5]; Table 12, 2.5 μg/mL
  Quercetin interaction with the Ah receptor, Milli O.D. Reading: 480 Milli O.D.
Ah receptor [5]; Table 12, 5 μg/mL
  Quercetin interaction with the Ah receptor, Milli O.D. Reading: 320 Milli O.D.
Ah receptor [5]; Table 12, 10 μg/mL
  Quercetin interaction with the Ah receptor, Milli O.D. Reading: 260 Milli O.D.
Ah receptor [5]; Table 12, 20 μg/mL
  Quercetin interaction with the Ah receptor, Milli O.D. Reading: 210 Milli O.D.
[7]
  anti-proliferative effect: anti-proliferative effect on those transformed, cancerous cells
[8]
  genotoxicity / carcinogenic activity: genotoxic compound, that may initiate carcinogenic activity in certain tissues
